According to PMC7217877, “N-AS-triggered SPMs are direct regulators of microglia in a model of Alzheimer’s disease” (Nature Communications, 2020):
Where “and” joins values, the source holds several entries; their conditions need not be identical. Identical values can stand only once.

Assays:
[1] = system: APP/PS1 mice; assay: thioflavin S staining of Aβ plaques in cortex and hippocampus (Fig 6a); assay type: in vivo, mouse; conditions: APP/PS1 + N-AS, individual values
Experimental: Thioflavin S (Sigma-Aldrich) staining was carried out according to previously described procedures. We used 6E10 (mouse, 1:100, Signet, SIG39300), anti-20G10 (mouse, 1:1000, provided by D. R. Howlett, GlaxoSmithKline, Harlow, Essex, UK) for Aβ42, anti-G30 (rabbit, 1:1000, provided by D. R. Howlett) for Aβ40, SMA (mouse, 1:400, Sigma-Aldrich, A2547), AT8 (mouse, 1:500, Thermo Fisher Scientific, MN1020), Caspase-3 (mouse, 1:200, Novus Biologicals, NB100-56708), ac-S565 (rabbit, 1:100), COX2 (mouse, 1:250, Thermo Fisher Scientific, 35-8200), Iba1 (rabbit, 1:500, Wako, 019-19941 and goat, Abcam, ab5076), NeuN (mouse, 1:500, Millipore, MAB177), GFAP (rabbit, 1:500, Dako, N1506 and chicken, 1:500, Abcam, ab4674), and Lamp1 (mouse, 1:200, Abcam, ab24170). The sections were analyzed with a laser-scanning confocal microscope (FV3000; Olympus) or with a BX51 microscope (Olympus). MetaMorph software (Molecular Devices) was used to quantification. Three-dimensional reconstruction of microglia was recorded and analyzed using IMARIS software (Bitplane)[11]. For the analysis of age-dependent microglial COX2^+ CX3CR1^+ cells in WT and APP/PS1 mice, COX2 (rabbit, 1:100, Abcam, ab15191) and CX3CR1 (mouse, 1:100, BioLegend, 149008) antibody were used and the images were acquired on Alexa 488 and APC Channel with performed using Operetta CLS and Analysis Software 4.5 (Perkin-Elmer). […]

[2] = system: astrocyte; assay: western blotting for ac-S565 and total COX2 in primary cells; assay type: cell-based, C57BL/6 mice; conditions: Ab 10mM, replicates
Experimental: To confirm the generation and roles of N-AS in neurons, cells from E18 C57BL/6 mice were prepared as previously described. Cortices were dissected and then dissociated followed by incubation in papain (Worthington) at 37 °C for 15 min. Neurons were plated on poly-L-lysine-coated coverslips with neuronal culture medium, serum-free Neurobasal medium (Gibco) containing 2% B27 supplements (Gibco), 1 mM Glutamax supplement (Gibco), and 100 U ml^−1 streptomycin/ 100 U ml^−1 penicillin (Gibco) at 37 °C in a humidified atmosphere of 5% CO2. Aβ 1–42 (10 μM, 24 h, Invitrogen, 03112) was exposed to neurons and the cells were analyzed for the generation and roles of N-AS. Primary astrocyte cultures were prepared from C57BL/6 mice as described previously. In brief, after removal of the meninges, postnatal day 7 (P7) mouse brain tissues were minced and incubated in a rocking water bath at 37 °C for 30 min in the presence of 0.25% trypsin-EDTA (Sigma-Aldrich). […] The human microglia treated with Aβ 1–42 and/or zileuton was incubated with N-AS (2.5 μM, 2 h, Sigma-Aldrich, 01912), and were analyzed for the generation and roles of N-AS.
Samples were lysed in RIPA buffer (Cell signaling Technologies), then subjected to SDS-PAGE and transferred to a nitrocellulose membrane. […] We performed densitometric quantification using the ImageJ software (National Institutes of Health). […]

Row | Compound | area occupied by Aβ plaques (thioflavin S) ([1]; Cortex) | area occupied by Aβ plaques (thioflavin S) ([1]; Hippocampus) | ac-S565 / total COX2, western blotting (Fig 3b) [2]
1 | CCCCCCCCCCCCC/C=C/[C@@H](O)[C@H](CO)NC(C)=O [N-AS, N-((2S,3R,E)-1,3-Dihydroxyoctadec-4-en-2-yl)acetamide] | 0.5468 and 0.5931 and 0.5106 and 0.2602 and 0.3052 and 0.2223 and 0.2101 and 0.1051 | 0.3692 and 0.3742 and 0.26 and 0.2921 and 0.4067 and 0.08652 and 0.2333 and 0.1243 | 
2 | Ab: Aβ 1–42 (Invitrogen, 03112) used to induce an AD environment in cells |  |  | 0.1055 and 0.07523 and 0.08324 and 0.06718 and 0.09034 and 0.07923
